# Data taken from US10626368B2, “Method for inducing cerebral cortex neurons” (KYOTO UNIVERSITY, priority 2015, dated 2020).
# Tested on: iPS cells (836B1)
# Test: Immunostaining for CoupTF1 and Ctip2 on day 46, suspension culture with various WNT inhibitors (Example 4)
# Assay type: cell-based, human
# Settings: 50 nM C59, 100 nM LGK-974, 1 μM ICG-001, day 46; C59 and LGK-974 compared with each other
# Method: On the day before induction of differentiation, in order to separate the iPS cells (836B1), which had been cultured in a culture medium to which 10 μM Y-27632 had been added, from the SNL feeder cells, the SNL cells were removed with CTK and the remaining cells were then dissociated using Accumax. The cells were transferred on a 96-well plate (Lipidure-coat 96-well plate) in an amount of 9×10^3 cells per well. Thereafter, the cells were subjected to a suspension culture in DMEM/F12 comprising 50 μM Y-27632, 10 μM SB43152, 10 ng/ml bFGF, various types of Wnt inhibitors (50 nM C59, 100 nM LGK-974, or 1 μM ICG-001 (Cellagen Technology)), 100 nM LDN193189, 10% KSR, 0.1 mM MEM non-essential amino acid, 0.1 mM 2-mercaptoethanol, and 2 mM L-Gln (initiation of differentiation induction, day 0). […] Three days later, the medium was exchanged with DMEM/F12 comprising various types of WNT inhibitors (C59, LGK-974, or ICG-001), 100 nM LDN193189, 10% KSR, 0.1 mM MEM non-essential amino acid, 0.1 mM 2-mercaptoethanol, and 2 mM L-Gln (day 6). Thereafter, the medium was exchanged with a fresh one of the same type every 3 days, and the culture was carried out for 18 days after the initiation of differentiation induction (day 18).
# A half of the medium on day 18 was removed by aspiration, and thereafter, Neurobasal, to which B27, 2 mM L-Gln, and 10 units/ml penicillin and streptomycin had been added, was added in the same amount as the removed medium to the remaining medium. Likewise, a half amount of the medium was exchanged on day 21. On day 24, the cells were transferred on a petri dish, and thereafter, a half of the medium was exchanged every 3 or 4 days. On day 46, the obtained cells were immunostained using antibodies against CoupTF1 and Ctip2. […] From the aforementioned results, it was confirmed that nerve cells existing in the desired corticocerebral motor area can be induced even by utilizing the WNT inhibitor LGK-974 having a similar action to C59.
compound,measurement,value
Cc1cc(-c2ccc(CC(=O)Nc3ccc(-c4cccnc4)cc3)cc2)ccn1 [C59],efficiency of inducing CoupTF1-negative Ctip2-positive cells,not found a large difference
